According to US8404664B2, “Phosphonated Rifamycins and uses thereof for the prevention and treatment of bone and joint infections” (Targanta Therapeutics, Inc., priority 2005, dated 2013):
≈ marks a conversion by molar mass, not a printed value. Marks after values point to notes of the source that are not given here.

Assays:
[1] = test system: S. aureus ATCC 43300 (Fluoroquinolone sensitive MRSA); assay: Antibacterial susceptibility (MIC), NCCLS broth microdilution; format: cell-based; conditions: for MIC: Staphylococcus aureus, read-out: Minimum inhibitory concentration, S. aureus ATCC 43300
Procedure: (§1) Susceptibility of S. aureus strains to the known antibiotics and synthesized compounds was determined by following the guidelines set by NCCLS (M26-A). Compounds were diluted two-fold serially in DMSO and transferred to cation-adjusted Mueller Hinton broth (CAMHB; Becton Dickinson). 50 μL of compounds diluted in CAMHB was mixed with 100 μL of bacteria diluted in CAMHB in 96-well microtiter plates. The final concentration of micro-organisms in the assay was 5×10^5 c.f.u. per mL and the final concentration of DMSO in the assay was 1.25%. Assays were set up in duplicate and incubated at 37° C. for 18 h. The lowest concentration of compound that inhibited visible growth was reported as the minimum inhibitory concentration (MIC).

[2] = test system: S. aureus BK85 (Fluoroquinolone resistant MRSA); assay: as above; format: cell-based; conditions: for MIC: Staphylococcus aureus, read-out: Minimum inhibitory concentration, S. aureus BK85
Procedure: as §1

[3] = test system: S. aureus RN4220; assay: as above; format: cell-based; conditions: CAMHB, 37° C., 18 h; for MIC: Staphylococcus aureus, RN4220, read-out: Minimum inhibitory concentration, S. aureus RN4220
Procedure: as §1

[4] = test system: S. aureus ATCC 13709; assay: as above; format: cell-based; conditions: for MIC: Staphylococcus aureus, ATCC13709, read-out: Minimum inhibitory concentration, S. aureus ATCC 13709
Procedure: as §1

[5] = test system: S. aureus ATCC 13709 Novobiocin and Rifampicin resistant variant; assay: microbe, parasite or virus in culture; format: cell-based; conditions: for MIC: Staphylococcus aureus, ATCC13709, read-out: Minimum inhibitory concentration, S. aureus ATCC 13709 variant; for Minimum inhibitory concentration, S. aureus ATCC 13709 variant: Novobiocin and Rifampicin resistant variant
Procedure: as §1

[6] = test system: S. aureus ATCC 13709 Novobiocin resistant mutant (bone infection); assay: Prophylactic efficacy in rat model of S. aureus bone infection; format: in vivo; conditions: rat tibia 24 h postinfection, 3 days prior to infection
Procedure: Specifically, a spontaneous Novobiocin resistant mutant strain of S. aureus ATCC 13709 (a clinical osteomyelitis isolate), was grown overnight at 37° C. in brain heart infusion broth (BHIB). After 16 h of growth, cells were subcultured into fresh BHIB and incubated for 4 to 5 h at 37° C. The cells were washed twice with phosphate-buffered saline (PBS) and resuspended in BHIB supplemented with 10% (vol./vol.) fetal bovine serum at a density of approximately 10^10 colony forming units (CFU)/ml (based upon turbidimetry). The suspension was aliquoted and a portion was used to check the CFU count. The culture was stored frozen (−80° C.) and was used without subculture. For use as an inoculum the culture was thawed, diluted in PBS and kept in an ice bath until it was used.
Animals were infected as described by O'Reilly et al. (Antimicrobial Agents and Chemotherapy (1992), 36(12): 2693-97) to generate the bone infection. Female CD rats (age, 57 to 70 days; n=5/group; Charles River, St-Constant, Canada) were anaesthetized by isofluorane before and during the surgery. Following complete induction of anesthesia, the rat was placed ventral side up and hair was shaved from the surgical site. The skin over the leg was cleaned and disinfected (proviodine-ethanol 70%). A longitudinal incision below the knee joint was made in the sagital plane. The incision was made over the bone below the “knee joint” (tibia head or condyle) but not completely extending to the ankle. A high speed drill fitted with a 2 mm bulb bit was used to drill a hole into the medullar cavity of the tibia. Rats were injected intra-tibially with 0.05 ml 5% sodium morrhuate (sclerosing agent) and then with 0.05 ml of S. aureus suspension (ca. 2×10^7 CFU/rat). The hole was sealed by applying a small amount of dry dental cement which immediately absorbs fluids and adheres to the site. The wound was closed using 3 metal skin clips. Moxifloxacin (as a positive control) was injected once at 10 mg/kg intravenously 1 h postinfection in saline, while the Rifamycin derived prodrugs (prepared in 0.9% saline) were injected at the dose indicated in Table 3 as a single intravenous bolus at different time points prior to the infection.
Infected rats were sacrificed by CO2 asphyxiation 24 h postinfection to monitor the bacterial CFU count. Infected tibiae were removed, dissected free of soft tissue, and weighed. The bones were ground, resuspended in 5 ml 0.9% NaCl, serially diluted and processed for quantitative cultures. For compounds 50, 68 and 81, 1 ml of the 0.9% NaCl solution was added to 50 mg of charcoal before serial dilutions. Treatment efficacy was measured in terms of Log viable bacteria (Log CFU per gram of bone). […] The limit of detection is 2 Log CFU. […] Differences were considered significant when the P value was <0.05 when comparing treated infected animals to the untreated infected ones. The doses used, the amount of time separating the treatment from the time of infection and the treatment outcomes are shown in Table 3.

[7] = test system: S. aureus ATCC 13709; assay: Antibacterial susceptibility (MIC) in the presence of serum; format: cell-based; conditions: for MIC: Staphylococcus aureus, ATCC13709, 18 h
Procedure: as §1
Susceptibility testing experiments were also carried out in the presence of serum.
These experiments were carried out similar to the susceptibility testing with the following modifications. 75 μL of compounds diluted in CAMHB was mixed with 75 μL of bacteria diluted in 100% serum from any given source (commercial pooled mouse serum (MS) and human serum (HS), Equitech-Bio Inc.) or diluted in 8% purified human serum albumin (HSA) (Calbiochem). The final concentration of animal serum in the assay was 50% and the final concentration of purified human serum albumin in the assay was 4%; the concentrations of all other components were identical to those described for susceptibility testing.

[8] = test system: E. coli LBB925 (tolC mutant); assay: Antibacterial susceptibility (MIC), NCCLS broth microdilution; format: cell-based; conditions: for MIC: Escherichia coli, read-out: Minimum inhibitory concentration, E. coli LBB925; for Minimum inhibitory concentration, E. coli LBB925: tolC mutant
[9] = Regeneration of drug from bone powder-bound prodrug; format: in vitro ADME; conditions: for % Conversion of bone-bound prodrug to parent drug: 24 h incubation, 37° C.; for Impact of the medium on the rate of regeneration of parent drug (in words): serum compared to PBS
Procedure: Amounts of parent drug “regenerated” from the phosphonated prodrug were measured as follows. Washed bone powder-bound prodrugs from the above experiment were resuspended in 400 μL PBS+2% DMSO or in 400 μL 50% (v/v in PBS+2% DMSO) human or rat serum. The suspension was incubated overnight at 37° C., centrifuged at 13,000 rpm for 2 min and the supernatant was recovered. The amount of regenerated parent drug in the supernatant was determined by measurements using the microbiological assay that was previously described for the prodrugs themselves. The amount of prodrug was deduced from standard curves of known amounts of parent drug that were used as reference for each experiment.

[10] = single dose 20 mg/kg parent drug equivalent
[11] = read-out: Minimum inhibitory concentration, S. aureus ATCC 13709 + 50% Human Serum
[12] = read-out: Minimum inhibitory concentration, S. aureus ATCC 13709 + 50% Mouse Serum
[13] = read-out: Minimum inhibitory concentration, S. aureus ATCC 13709 + 50% Rat Serum

## CO[C@H]1/C=C/O[C@@]2(C)Oc3c(C)c(O)c4c(=O)c(c5oc6cc(N7CCC(O)CC7)cc(O)c6nc-5c4c3C2=O)NC(=O)/C(C)=C\C=C\[C@H](C)[C@H](O)[C@@H](C)[C@@H](O)[C@@H](C)[C@H](OC(C)=O)[C@@H]1C [Compound 63, 1′,4-Didehydro-1-deoxy-1,4-dihydro-3′-hydroxy-5′-[4-hydroxy-1-piperidinyl]-1-oxorifamycin VIII]
[1]
  MIC: 0.00048 µg/mL (≈ 0.533 nM)
[2]
  MIC: 0.00048 µg/mL (≈ 0.533 nM)
[3]
  MIC: 0.00048 µg/mL (≈ 0.533 nM)
[4]
  MIC: 0.00048 µg/mL (≈ 0.533 nM)
[5]
  MIC: 2 µg/mL (≈ 2220 nM)
[6]; [10]
  Measured bacterial titer: 2.84 ± 0.93 Log CFU/g of bone
[7]; [11]
  MIC: 0.0078 µg/mL
[7]; [12]
  MIC: 0.0156 µg/mL
[7]; [13]
  MIC: 0.032 µg/mL
[8]
  MIC: 8 µg/mL (≈ 8890 nM)

## CO[C@H]1/C=C/O[C@@]2(C)Oc3c(C)c(O)c4c(=O)c(c5oc6cc(N7CCC(OC(=O)CCC(=O)NC(P(=O)(O)O)P(=O)(O)O)CC7)cc(O)c6nc-5c4c3C2=O)NC(=O)/C(C)=C\C=C\[C@H](C)[C@H](O)[C@@H](C)[C@@H](O)[C@@H](C)[C@H](OC(C)=O)[C@@H]1C [Compound 68]
[1]
  Minimum inhibitory concentration, S. aureus ATCC 43300: 0.0625 µg/mL (≈ 53.3 nM)
[2]
  Minimum inhibitory concentration, S. aureus BK85: 0.25 µg/mL (≈ 213 nM)
[3]
  Minimum inhibitory concentration, S. aureus RN4220: 0.25 µg/mL (≈ 213 nM)
[4]
  Minimum inhibitory concentration, S. aureus ATCC 13709: 0.0625 µg/mL (≈ 53.3 nM)
[5]
  Activity against the Rifampicin resistant variant of S. aureus ATCC13709 (in words): complete lack of activity
  Minimum inhibitory concentration, S. aureus ATCC 13709 variant: >128 µg/mL
[6]; [10]
  Measured bacterial titer: 4.86 ± 0.66 Log CFU/g of bone
[7]
  Minimum inhibitory concentration, S. aureus ATCC 13709 + 50% Human Serum: 1 µg/mL
  Minimum inhibitory concentration, S. aureus ATCC 13709 + 50% Mouse Serum: 1 µg/mL
  Minimum inhibitory concentration, S. aureus ATCC 13709 + 50% Rat Serum: 2 µg/mL
[9]
  Regeneration of parent drug once bound to bone (in words): only slightly regenerates
  Impact of the medium on the rate of regeneration of parent drug (in words): significant acceleration
[9]; 50% Rat Serum
  % Conversion of bone-bound prodrug to parent drug: 0.24%
[9]; PBS
  % Conversion of bone-bound prodrug to parent drug: 0.02%
[8]
  Minimum inhibitory concentration, E. coli LBB925: 64 µg/mL (≈ 54600 nM)

## CCN(CC)CC.CCN(CC)CC.CO[C@H]1/C=C/O[C@@]2(C)Oc3c(C)c(O)c4c(c3C2=O)C2=NC3(CCN(CC(C)C)CC3)N(C(=O)OCOC(=O)CCCC(P(=O)(O)O)P(=O)(O)O)C2=C(NC(=O)/C(C)=C\C=C\[C@H](C)[C@H](O)[C@@H](C)[C@@H](O)[C@@H](C)[C@H](OC(C)=O)[C@@H]1C)C4=O [Compound 50]
[1]
  Minimum inhibitory concentration, S. aureus ATCC 43300: 0.25 µg/mL
[2]
  Minimum inhibitory concentration, S. aureus BK85: 0.25 µg/mL
[3]
  Minimum inhibitory concentration, S. aureus RN4220: 0.25 µg/mL
[4]
  Minimum inhibitory concentration, S. aureus ATCC 13709: 0.25 µg/mL
[5]
  Activity against the Rifampicin resistant variant of S. aureus ATCC13709 (in words): complete lack of activity
  Minimum inhibitory concentration, S. aureus ATCC 13709 variant: >128 µg/mL
[6]; [10]
  Measured bacterial titer: 6.31 ± 0.82 Log CFU/g of bone
[7]
  Impact of serum on the MICs (in words): no impact
  Minimum inhibitory concentration, S. aureus ATCC 13709 + 50% Human Serum: 0.125 µg/mL
  Minimum inhibitory concentration, S. aureus ATCC 13709 + 50% Mouse Serum: 0.125 µg/mL
  Minimum inhibitory concentration, S. aureus ATCC 13709 + 50% Rat Serum: 0.032 µg/mL
[9]; 50% Rat Serum
  % Conversion of bone-bound prodrug to parent drug: 2.68%
[9]; PBS
  % Conversion of bone-bound prodrug to parent drug: 2.65%
[9]
  Impact of the medium on the rate of regeneration of parent drug (in words): not significantly impacted
[8]
  Minimum inhibitory concentration, E. coli LBB925: 16 µg/mL

## CO[C@H]1/C=C/O[C@@]2(C)Oc3c(C)c(O)c4c(=O)c(c5oc6cc(N7CCN(CC(C)C)CC7)cc(O)c6nc-5c4c3C2=O)NC(=O)/C(C)=C\C=C\[C@H](C)[C@H](O)[C@@H](C)[C@@H](O)[C@@H](C)[C@H](OC(C)=O)[C@@H]1C [Rifalazil, 1′,4-Didehydro-1-deoxy-1,4-dihydro-3′-hydroxy-5′-[4-(2-methylpropyl)-1-piperazinyl]-1-oxorifamycin VIII, reference compound]
[1]
  MIC: 0.001 µg/mL (≈ 1.06 nM)
[2]
  MIC: 0.001 µg/mL (≈ 1.06 nM)
[3]
  MIC: 0.00048 µg/mL (≈ 0.51 nM)
[4]
  MIC: 0.001 µg/mL (≈ 1.06 nM)
[5]
  MIC: 16 µg/mL (≈ 17000 nM)
[6]; single dose 10 mg/kg parent drug equivalent
  Measured bacterial titer: 2.21 ± 0.34 Log CFU/g of bone
[6]; [10]
  Measured bacterial titer: 4.08 ± 1.53^a Log CFU/g of bone
[7]; [11]
  MIC: 0.032 µg/mL
[7]; [12]
  MIC: 0.032 µg/mL
[7]; [13]
  MIC: 0.0078 µg/mL
[8]
  MIC: 16 µg/mL (≈ 17000 nM)
